US10610522B2, “Methods for retreating irritable bowel syndrome (IBS)” (Salix Pharmaceuticals, Inc., priority 2014, dated 2020)

Columns and labels:
non-constipation IBS = assay: Combined first and second studies (TARGET 1 and 2): pooled efficacy, sustained response and recurrence; assay type: in vivo, human; conditions: for Recurrence, Stool Consistency: % of subjects / Recurrence, Stool Consistency: number of subjects / No Recurrence, Abdominal Pain & Stool Consistency: % of subjects / No Recurrence, Abdominal Pain & Stool Consistency: number of subjects / No Recurrence, Abdominal Pain: % of subjects / No Recurrence, Abdominal Pain: number of subjects / No Recurrence, Stool Consistency: % of subjects / No Recurrence, Stool Consistency: number of subjects / Recurrence, Abdominal Pain & Stool Consistency: % of subjects / Recurrence, Abdominal Pain & Stool Consistency: number of subjects / Recurrence, Abdominal Pain: % of subjects / Recurrence, Abdominal Pain: number of subjects: N = 624; for Abdominal Pain or Stool Consistency, No Recurrence / Abdominal Pain or Stool Consistency, Recurrence: Rifaximin (N = 624), n (%)
Description: A measure of efficacy is based on subjects' answers to the Weekly Subject Global Assessment (SGA) questions over the study duration in relation to their IBS symptoms.
An evaluation of the enrolled subjects was carried out after the Primary Evaluation Period in the study described in Examples 5-7. […] Subjects with no recurrence are defined as having a stool consistency score of less than 4, abdominal pain reduced by at least 30 percent or both.

[1] = tested on: hepatic encephalopathy (HE), commonly-occurring infections; assay: Infection rates in cirrhotic patients with HE on long-term rifaximin 550 mg BID (RCT and open-label maintenance); assay type: in vivo; conditions: for Any infection: rate = number of subjects/PEY; for C. difficile infection / Cellulitis / Peritonitis / Pneumonia / Urinary tract/kidney infection: human, in vivo
Excerpt: Cirrhosis patients can have an increased risk of infections and subsequent hospitalizations, leading to increased mortality. […] A description of the OLM and RCT can be found in WO 2011/005388, “METHODS OF TREATING HEPATIC ENCEPHALOPATHY,” which is incorporated herein by reference in its entirety. In the analysis below, the effect of long term RFX treatment on infection rates and antibiotic use was examined.
Patients with cirrhosis and ≥2 overt HE episodes within 12 months were enrolled in the RCT (RFX=140; placebo [PBO]=159); 170 new patients, in addition to 70 RFX and 82 PBO patients who rolled over from the RCT were enrolled in OLM. The “All RFX group” (n=392) consisted of RFX-treated patients in both studies. Infection rates per person exposure years (PEY) were compared across RCT and All RFX groups, and antibiotic use over time was examined.
In the 6 month RCT, RFX exposure was 50 PEY vs 46 PEY in the PBO group. Long term RFX exposure was for median=427 (2-1427) days, or 510 PEY. […] Overall, use of antibiotics (oral and intravenous) remained the same or declined with time.

rabbit fetuses = assay: Developmental toxicity in pregnant rabbits; assay type: in vivo

`CO[C@H]1/C=C/O[C@@]2(C)Oc3c(C)c(O)c4c(O)c(c5c(nc6cc(C)ccn65)c4c3C2=O)NC(=O)/C(C)=C\C=C\[C@H](C)[C@H](O)[C@@H](C)[C@@H](O)[C@@H](C)[C@H](OC(C)=O)[C@@H]1C` [Rifaximin, (2S,16Z,18E,20S,21S,22R,23R,24R,25S,26S,27S,28E)-5,6,21,23,25 Pentahydroxy-27-methoxy-2,4,11,16,20,22,24,26-octamethyl-2,7-(epoxypentadeca-(1,11,13)trienimino) benzofuro (4,5-e) pyrido(1,2-a) benzimidazole-1,15(2H)-dione,25-acetate] was tested, and the “Recurrence, Stool Consistency: % of subjects” value (non-constipation IBS; Rolling 4 Weeks: 6-9 Weeks) was 2.6%, the “Recurrence, Stool Consistency: number of subjects” value (non-constipation IBS; Rolling 4 Weeks: 6-9 Weeks) was 16 and the “No Recurrence, Abdominal Pain & Stool Consistency: % of subjects” value (non-constipation IBS; Rolling 4 Weeks: 7-10 Weeks) was “(39.1%)”. The “No Recurrence, Abdominal Pain & Stool Consistency: number of subjects” value (non-constipation IBS; Rolling 4 Weeks: 7-10 Weeks) was 244, the “No Recurrence, Abdominal Pain: % of subjects” value (non-constipation IBS; Rolling 4 Weeks: 7-10 Weeks) was “(42.6%)” and the “No Recurrence, Abdominal Pain: number of subjects” value (non-constipation IBS; Rolling 4 Weeks: 7-10 Weeks) was 266. The “No Recurrence, Stool Consistency: % of subjects” value (non-constipation IBS; Rolling 4 Weeks: 7-10 Weeks) was “(72.9%)”, the “No Recurrence, Stool Consistency: number of subjects” value (non-constipation IBS; Rolling 4 Weeks: 7-10 Weeks) was 455 and the “Recurrence, Abdominal Pain & Stool Consistency: % of subjects” value (non-constipation IBS; Rolling 4 Weeks: 7-10 Weeks) was 1.8%. For the same compound, the “Recurrence, Abdominal Pain & Stool Consistency: number of subjects” value (non-constipation IBS; Rolling 4 Weeks: 7-10 Weeks) was 11, the “Recurrence, Abdominal Pain: % of subjects” value (non-constipation IBS; Rolling 4 Weeks: 7-10 Weeks) was 2.4% and the “Recurrence, Abdominal Pain: number of subjects” value (non-constipation IBS; Rolling 4 Weeks: 7-10 Weeks) was 15. For the same compound, the “Recurrence, Stool Consistency: % of subjects” value (non-constipation IBS; Rolling 4 Weeks: 7-10 Weeks) was 1.4%, the “Recurrence, Stool Consistency: number of subjects” value (non-constipation IBS; Rolling 4 Weeks: 7-10 Weeks) was 9 and the “No Recurrence, Abdominal Pain & Stool Consistency: % of subjects” value (non-constipation IBS; Rolling 4 Weeks: 8-11 Weeks) was “(37.3%)”. For the same compound, the “No Recurrence, Abdominal Pain & Stool Consistency: number of subjects” value (non-constipation IBS; Rolling 4 Weeks: 8-11 Weeks) was 233, the “No Recurrence, Abdominal Pain: % of subjects” value (non-constipation IBS; Rolling 4 Weeks: 8-11 Weeks) was “(40.2%)” and the “No Recurrence, Abdominal Pain: number of subjects” value (non-constipation IBS; Rolling 4 Weeks: 8-11 Weeks) was 251. The “No Recurrence, Stool Consistency: % of subjects” value (non-constipation IBS; Rolling 4 Weeks: 8-11 Weeks) was “(71.5%)”, the “No Recurrence, Stool Consistency: number of subjects” value (non-constipation IBS; Rolling 4 Weeks: 8-11 Weeks) was 446 and the “Recurrence, Abdominal Pain & Stool Consistency: % of subjects” value (non-constipation IBS; Rolling 4 Weeks: 8-11 Weeks) was 2.2%. The “Recurrence, Abdominal Pain & Stool Consistency: number of subjects” value (non-constipation IBS; Rolling 4 Weeks: 8-11 Weeks) was 14, the “Recurrence, Abdominal Pain: % of subjects” value (non-constipation IBS; Rolling 4 Weeks: 8-11 Weeks) was 2.2% and the “Recurrence, Abdominal Pain: number of subjects” value (non-constipation IBS; Rolling 4 Weeks: 8-11 Weeks) was 14. The “Recurrence, Stool Consistency: % of subjects” value (non-constipation IBS; Rolling 4 Weeks: 8-11 Weeks) was 0.5%, the “Recurrence, Stool Consistency: number of subjects” value (non-constipation IBS; Rolling 4 Weeks: 8-11 Weeks) was 3 and the “No Recurrence, Abdominal Pain & Stool Consistency: % of subjects” value (non-constipation IBS; Rolling 4 Weeks: 9-12 Weeks) was “(35.1%)”. The “No Recurrence, Abdominal Pain & Stool Consistency: number of subjects” value (non-constipation IBS; Rolling 4 Weeks: 9-12 Weeks) was 219, the “No Recurrence, Abdominal Pain: % of subjects” value (non-constipation IBS; Rolling 4 Weeks: 9-12 Weeks) was “(38.0%)” and the “No Recurrence, Abdominal Pain: number of subjects” value (non-constipation IBS; Rolling 4 Weeks: 9-12 Weeks) was 237. For the same compound, the “No Recurrence, Stool Consistency: % of subjects” value (non-constipation IBS; Rolling 4 Weeks: 9-12 Weeks) was “(71.0%)”, the “No Recurrence, Stool Consistency: number of subjects” value (non-constipation IBS; Rolling 4 Weeks: 9-12 Weeks) was 443 and the “Recurrence, Abdominal Pain & Stool Consistency: % of subjects” value (non-constipation IBS; Rolling 4 Weeks: 9-12 Weeks) was 1.9%. The “Recurrence, Abdominal Pain & Stool Consistency: number of subjects” value (non-constipation IBS; Rolling 4 Weeks: 9-12 Weeks) was 12, the “Recurrence, Abdominal Pain: % of subjects” value (non-constipation IBS; Rolling 4 Weeks: 9-12 Weeks) was 2.2% and the “Recurrence, Abdominal Pain: number of subjects” value (non-constipation IBS; Rolling 4 Weeks: 9-12 Weeks) was 14. For the same compound, the “Recurrence, Stool Consistency: % of subjects” value (non-constipation IBS; Rolling 4 Weeks: 9-12 Weeks) was 2.1%, the “Recurrence, Stool Consistency: number of subjects” value (non-constipation IBS; Rolling 4 Weeks: 9-12 Weeks) was 13 and the “Abdominal Pain or Stool Consistency, No Recurrence” value (non-constipation IBS; Rolling 5-8 Weeks) was 234 (37.5%). For the same compound, the “Abdominal Pain or Stool Consistency, Recurrence” value (non-constipation IBS; Rolling 5-8 Weeks) was 16 (2.6%), the “Abdominal Pain or Stool Consistency, No Recurrence” value (non-constipation IBS; Rolling 6-9 Weeks) was 218 (34.9%) and the “Abdominal Pain or Stool Consistency, Recurrence” value (non-constipation IBS; Rolling 6-9 Weeks) was 10 (1.6%). The “Abdominal Pain or Stool Consistency, No Recurrence” value (non-constipation IBS; Rolling 7-10 Weeks) was 208 (33.3%), the “Abdominal Pain or Stool Consistency, Recurrence” value (non-constipation IBS; Rolling 7-10 Weeks) was 10 (1.6%) and the “Abdominal Pain or Stool Consistency, No Recurrence” value (non-constipation IBS; Rolling 8-11 Weeks) was 198 (31.7%). The “Abdominal Pain or Stool Consistency, Recurrence” value (non-constipation IBS; Rolling 8-11 Weeks) was 8 (1.3%), the “Abdominal Pain or Stool Consistency, No Recurrence” value (non-constipation IBS; Rolling 9-12 Weeks) was 190 (30.4%) and the “Abdominal Pain or Stool Consistency, Recurrence” value (non-constipation IBS; Rolling 9-12 Weeks) was 10 (1.6%). The Any infection ([1]; All RFX patients (n = 392), PEY = 510) was 214 (0.072) N (rate*), the Any infection ([1]; RCT RFX 550 mg BID (n = 140), PEY = 50) was 46 (0.112) N (rate*) and the C. difficile infection [1] was 6 (0.012) N (rate*). For the same compound, the Cellulitis [1] was 34 (0.071) N (rate*), the Peritonitis [1] was 22 (0.044) N (rate*) and the Pneumonia [1] was 42 (0.084) N (rate*). For the same compound, the Urinary tract/kidney infection [1] was 83 (0.193) N (rate*), the C. difficile infection ([1]; 6 months) was 2 (0.040) N (rate*) and the Cellulitis ([1]; 6 months) was 3 (0.006) N (rate*). For the same compound, the Peritonitis ([1]; 6 months) was 3 (0.060) N (rate*), the Pneumonia ([1]; 6 months) was 4 (0.080) N (rate*) and the Urinary tract/kidney infection ([1]; 6 months) was 9 (0.187) N (rate*). The Additional fetal malformations (rabbit fetuses; fetal rabbits) was “cleft palate, lumbar scoliosis, brachygnathia, interventricular septal defect, and large atrium” and the Fetal malformations (rabbit fetuses; pregnant rabbits, dose levels that caused reduced body weight gain) was “eye malformations”.
